Earlier results, collected in US12318461B2, “Salicylic acid gel” (Vantage Specialty Ingredients, Inc., priority 2012, dated 2025).

- solubility in water: poorly soluble
Structure (SMILES): O=C(O)c1ccccc1O [Salicylic acid, 2-hydroxybenzenecarboxylic acid]
